Consider six compounds from US20190375786A1, “STABLE PEPTIDES AND METHODS OF USE THEREOF” (Fred Hutchinson Cancer Research Center, priority 2016, published 2019).

For one series, the target named is trypsin (Sus scrofa, UniProt P00761). The series is described as follows: Trypsin digestion resistance of soluble peptide, RP-HPLC. The format is in vitro ADME, porcine. The arrangement: purchased Sigma Aldrich 6567. To be noted: 500 U/ml trypsin, 30 minutes at 37.5° C.; HPLC peak vs untreated peptide. In a few lines:
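Read-out was RP-HPLC (C-18, water/acetonitrile with 0.1% TFA, 5-45% over 10 min) of peptide left after trypsin treatment. Digest: 12.5 μg peptide, 500 U/ml porcine trypsin, PBS, 37.5° C for 30 min, stopped by soybean trypsin inhibitor; samples then reduced (10 mM DTT) or left non-reduced.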

A further series concerns the target pepsin (Sus scrofa, UniProt P00791). The series is described as follows: Pepsin digestion resistance in simulated gastric fluid, RP-HPLC. To be noted: 500 U/ml pepsin in SGF pH 1.05, 30 minutes at 37.5° C.; HPLC peak vs untreated peptide. Set-up: purchased Sigma Aldrich P7012. The format is in vitro ADME, porcine. In a few lines: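 Digestion resistance read by reversed-phase HPLC (C-18, 0.1% TFA, 5–45% acetonitrile over 10 min; 214/280 nm) after 12.5 μg peptide spent 30 min at 37.5 °C in pH 1.05 simulated gastric fluid, with or without 500 U/ml pepsin. Some samples quenched with Tris base and DTT.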

Positions of bridges follow the written chain, without caps; N, C: chain ends. Residues, ends and D or L forms follow the SMILES beside them.

Chain of trypsin (P00761 9-231): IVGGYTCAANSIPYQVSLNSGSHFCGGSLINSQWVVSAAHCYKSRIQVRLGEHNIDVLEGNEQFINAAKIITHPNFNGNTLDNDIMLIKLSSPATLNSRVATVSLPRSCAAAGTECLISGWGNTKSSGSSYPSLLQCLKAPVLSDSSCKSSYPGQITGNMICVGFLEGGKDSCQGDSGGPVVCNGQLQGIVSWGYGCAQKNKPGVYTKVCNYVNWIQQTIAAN
Chain of pepsin (P00791 60-385): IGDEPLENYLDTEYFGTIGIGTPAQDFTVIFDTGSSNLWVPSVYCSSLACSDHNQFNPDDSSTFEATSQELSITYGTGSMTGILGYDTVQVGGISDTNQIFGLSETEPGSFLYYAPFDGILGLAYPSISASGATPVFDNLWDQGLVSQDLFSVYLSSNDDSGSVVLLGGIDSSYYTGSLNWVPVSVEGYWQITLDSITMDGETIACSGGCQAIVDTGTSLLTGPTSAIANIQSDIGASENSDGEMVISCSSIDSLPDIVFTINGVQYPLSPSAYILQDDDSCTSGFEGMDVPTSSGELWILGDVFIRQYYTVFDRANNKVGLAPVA

Take `CC[C@H](C)[C@H](NC(=O)[C@@H](NC(=O)[C@@H](NC(=O)[C@H](CO)NC(=O)CN)C(C)C)C(C)C)C(=O)NCC(=O)N[C@@H](CCC(N)=O)C(=O)N[C@@H](CCCNC(=N)N)C(=O)N[C@H]1CSSC[C@@H]2NC(=O)[C@H](CCCCN)NC(=O)CNC(=O)[C@H]([C@@H](C)O)NC(=O)[C@H](C)NC(=O)[C@H](CCCCN)NC(=O)CNC(=O)[C@H](C(C)C)NC(=O)[C@H](CC(C)C)NC(=O)[C@H](CCCCN)NC(=O)[C@H](CCCCN)NC(=O)[C@@H]3CSSC[C@@H](C(=O)O)NC(=O)[C@H](CC(=O)O)NC(=O)[C@H](CSSC[C@H](NC(=O)[C@H](CC(=O)O)NC(=O)[C@@H]4CCCN4C(=O)[C@H](CO)NC(=O)[C@H](CCCNC(=N)N)NC(=O)[C@H](Cc4ccc(O)cc4)NC1=O)C(=O)N[C@@H](Cc1ccc(O)cc1)C(=O)N[C@@H](CO)C(=O)N[C@@H](C)C(=O)N3)NC(=O)[C@H](CCCNC(=N)N)NC(=O)CNC(=O)[C@H](CC(N)=O)NC(=O)[C@H]([C@@H](C)O)NC2=O` [compound 36] (H-GSVVIGQRCYRSPDCYSACKKLVGKATGKCTNGRCDC-OH; disulfide 9-30, 15-35, 19-37): the “Resistance to Trypsin (500 U/ml)” value at trypsin was “Low (A peptide classified as low indicates that the majority (over 75%) of the HPLC peak of the treated peptide disappeared as compared to the HPLC peak of the untreated peptide)”. The “Resistance to Pepsin (500 U/ml)” value at pepsin is given as “High (A peptide classified as high indicates that the majority (at least 75%) of the HPLC peak of the treated peptide is still present as compared to the HPLC peak of the untreated peptide)”.
For `CC[C@H](C)[C@@H]1NC(=O)[C@H](C)NC(=O)[C@H](CCC(=O)O)NC(=O)[C@H](CCCCN)NC(=O)[C@@H]2CSSC[C@@H](C(=O)N[C@@H](Cc3ccc(O)cc3)C(=O)N3CCC[C@H]3C(=O)O)NC(=O)[C@H](CCCCN)NC(=O)[C@@H]3CSSC[C@H](NC(=O)[C@H](CCC(=O)O)NC(=O)[C@@H]4CCCN4C(=O)[C@H](CO)NC(=O)CNC(=O)[C@H](CCCNC(=N)N)NC(=O)[C@@H](NC(=O)[C@H](CCCCN)NC(=O)[C@@H](NC(=O)[C@H](CC(N)=O)NC(=O)[C@@H](NC(=O)[C@H](Cc4ccccc4)NC(=O)[C@@H](NC(=O)[C@H](CO)NC(=O)CN)C(C)C)[C@@H](C)CC)C(C)C)CSSC[C@H](NC(=O)[C@H](CCCCN)NC(=O)CNC(=O)[C@H](C)NC(=O)[C@H](CO)NC(=O)[C@H](CCCCN)NC(=O)CNC1=O)C(=O)N[C@@H](CCSC)C(=O)N[C@@H](CC(N)=O)C(=O)NCC(=O)N[C@@H](CCCCN)C(=O)N3)C(=O)N[C@@H](CC(C)C)C(=O)N1CCC[C@H]1C(=O)N[C@@H](CCCCN)C(=O)N2` [compound 37] (H-GSVFINVKCRGSPECLPKCKEAIGKSAGKCMNGKCKCYP-OH; disulfide 9-30, 15-35, 19-37), in that order: “Low (A peptide classified as low indicates that the majority (over 75%) of the HPLC peak of the treated peptide disappeared as compared to the HPLC peak of the untreated peptide)” and “High (A peptide classified as high indicates that the majority (at least 75%) of the HPLC peak of the treated peptide is still present as compared to the HPLC peak of the untreated peptide)”.
For `CC(C)[C@H](NC(=O)[C@H](CO)NC(=O)CN)C(=O)N[C@@H](CO)C(=O)N[C@H]1CSSC[C@@H]2NC(=O)[C@H](CCCCN)NC(=O)[C@H](C)NC(=O)[C@H](CCCNC(=N)N)NC(=O)[C@H](CCC(N)=O)NC(=O)[C@H](CC(=O)O)NC(=O)[C@H](CCCCN)NC(=O)[C@H]([C@@H](C)O)NC(=O)[C@H](C)NC(=O)[C@@H]3CSSC[C@@H](C(=O)N[C@@H](CCC(=O)O)C(=O)N4CCC[C@H]4C(=O)N[C@@H](CCCCN)C(=O)O)NC(=O)[C@H](C(C)C)NC(=O)[C@H](CSSC[C@H](NC(=O)[C@H](CC(=O)O)NC(=O)[C@H](CCC(=O)O)NC1=O)C(=O)N1CCC[C@H]1C(=O)N[C@@H](CCC(=O)O)C(=O)N[C@@H](Cc1c[nH]cn1)C(=O)N3)NC(=O)[C@H](CCCNC(=N)N)NC(=O)[C@H](CC(=O)O)NC(=O)[C@H](CC(N)=O)NC(=O)[C@H](CC(=O)O)NC2=O` [compound 54] (H-GSVSCEDCPEHCATKDQRAKCDNDRCVCEPK-OH; disulfide 5-21, 8-26, 12-28), in that order: “Low (A peptide classified as low indicates that the majority (over 75%) of the HPLC peak of the treated peptide disappeared as compared to the HPLC peak of the untreated peptide)” and “High (A peptide classified as high indicates that the majority (at least 75%) of the HPLC peak of the treated peptide is still present as compared to the HPLC peak of the untreated peptide)”.
Consider `CC[C@H](C)[C@H](NC(=O)CNC(=O)[C@H](CO)NC(=O)CN)C(=O)N[C@H](C(=O)N[C@H]1CSSC[C@@H]2NC(=O)[C@H]([C@@H](C)CC)NC(=O)[C@H](CC(N)=O)NC(=O)[C@H](C(C)C)NC(=O)[C@H](CCCCN)NC(=O)[C@H](CCCCN)NC(=O)CNC(=O)[C@H](CCC(N)=O)NC(=O)[C@H](CCSC)NC(=O)CNC(=O)[C@@H]3CSSC[C@@H](C(=O)N[C@@H](CCCCN)C(=O)N[C@@H](CCCCN)C(=O)NCC(=O)O)NC(=O)[C@H](CCCCN)NC(=O)[C@H](CSSC[C@H](NC(=O)[C@H](C(C)C)NC(=O)[C@H](CCCCN)NC1=O)C(=O)N[C@@H](CCCCN)C(=O)N[C@@H]([C@@H](C)CC)C(=O)N[C@@H]([C@@H](C)CC)C(=O)N3)NC(=O)[C@H](CCCCN)NC(=O)[C@H]([C@@H](C)CC)NC(=O)[C@@H]1CCCN1C(=O)[C@H](C)NC(=O)[C@H](CCCCN)NC2=O)C(C)C` [compound 55] (H-GSGIVCKVCKIICGMQGKKVNICKAPIKCKCKKG-OH; disulfide 6-23, 9-29, 13-31), for which the “Resistance to Trypsin (500 U/ml)” value on trypsin is listed as “Low (A peptide classified as low indicates that the majority (over 75%) of the HPLC peak of the treated peptide disappeared as compared to the HPLC peak of the untreated peptide)”. Also, the “Resistance to Pepsin (500 U/ml)” value at pepsin is given as “High (A peptide classified as high indicates that the majority (at least 75%) of the HPLC peak of the treated peptide is still present as compared to the HPLC peak of the untreated peptide)”.
For `CC[C@H](C)[C@@H]1NC(=O)[C@@H]2CSSC[C@@H]3NC(=O)[C@H](CCCCN)NC(=O)CNC(=O)[C@H](CC(N)=O)NC(=O)[C@H](CCSC)NC(=O)[C@H](CSSC[C@H](NC(=O)[C@H](CCCCN)NC(=O)[C@@H](NC(=O)[C@H](CC(=O)O)NC(=O)[C@@H](NC(=O)[C@@H]4CCCN4C(=O)[C@@H](NC(=O)CNC(=O)[C@H](CO)NC(=O)CN)C(C)C)[C@@H](C)O)C(C)C)C(=O)N[C@@H](CCCNC(=N)N)C(=O)NCC(=O)N[C@@H](CO)C(=O)N4CCC[C@H]4C(=O)N[C@@H](CCC(N)=O)C(=O)N2)NC(=O)[C@H](CCCCN)NC(=O)CNC(=O)[C@H](Cc2ccccc2)NC(=O)[C@H](CCCNC(=N)N)NC(=O)[C@H](CCSC)NC(=O)CNC(=O)[C@H](C)NC(=O)[C@H](CC(=O)O)NC(=O)[C@H](CCCCN)NC(=O)[C@H](CSSC[C@@H](C(=O)N[C@H](C(=O)N2CCC[C@H]2C(=O)N[C@@H](CCCCN)C(=O)O)[C@@H](C)O)NC(=O)[C@H](Cc2c[nH]cn2)NC3=O)NC(=O)[C@@H]2CCCN2C(=O)[C@H](CCC(N)=O)NC1=O` [compound 56] (H-GSGVPTDVKCRGSPQCIQPCKDAGMRFGKCMNGKCHCTPK-OH; disulfide 10-30, 16-35, 20-37), in that order: “Low (A peptide classified as low indicates that the majority (over 75%) of the HPLC peak of the treated peptide disappeared as compared to the HPLC peak of the untreated peptide)” and “High (A peptide classified as high indicates that the majority (at least 75%) of the HPLC peak of the treated peptide is still present as compared to the HPLC peak of the untreated peptide)”.
As for `CC[C@H](C)[C@@H]1NC(=O)[C@H](CCCCN)NC(=O)[C@@H](NC(=O)[C@H](CCCCN)NC(=O)[C@@H](NC(=O)[C@H](CC(N)=O)NC(=O)[C@@H](NC(=O)[C@@H](NC(=O)[C@@H](NC(=O)CNC(=O)[C@H](CO)NC(=O)CN)C(C)C)[C@@H](C)CC)[C@@H](C)CC)C(C)C)CSSC[C@@H]2NC(=O)[C@H](CCCCN)NC(=O)CNC(=O)[C@H](Cc3ccccc3)NC(=O)[C@H](CCCNC(=N)N)NC(=O)[C@H](CCSC)NC(=O)CNC(=O)[C@H](C)NC(=O)[C@H](CCCCN)NC(=O)[C@H](CCCCN)NC(=O)[C@@H]3CSSC[C@@H](C(=O)N[C@H](C(=O)N4CCC[C@H]4C(=O)N[C@@H](CCCCN)C(=O)O)[C@@H](C)O)NC(=O)[C@H](Cc4c[nH]cn4)NC(=O)[C@H](CSSC[C@H](NC(=O)[C@H](CCC(N)=O)NC(=O)[C@H](CCCNC(=N)N)NC(=O)[C@H](CO)NC1=O)C(=O)N[C@@H](CC(C)C)C(=O)N[C@@H](CCC(=O)O)C(=O)N1CCC[C@H]1C(=O)N3)NC(=O)[C@H](CCCCN)NC(=O)CNC(=O)[C@H](CC(N)=O)NC(=O)[C@H](CCSC)NC2=O` [compound 57], the “Resistance to Trypsin (500 U/ml)” value on trypsin is given as “High (A peptide classified as high indicates that the majority (at least 75%) of the HPLC peak of the treated peptide is still present as compared to the HPLC peak of the untreated peptide)”. In addition, the “Resistance to Pepsin (500 U/ml)” value on pepsin is “High (A peptide classified as high indicates that the majority (at least 75%) of the HPLC peak of the treated peptide is still present as compared to the HPLC peak of the untreated peptide)”.
